The record followed here is patent publication US5006342A, “Resilient transdermal drug delivery device” (Cygnus Corporation, priority 1989, dated 1991).

The nature of series [1]: E2 in vitro steady-state skin flux across human cadaver skin (diffusion cells, 32° C.). In kind it is in vitro ADME.
A short description of series [2]: wearing study, E2 plasma levels in postmenopausal female subjects. In kind it is in vivo, postmenopausal female subjects (human). The conditions noted are these: postmenopausal females.
Series [3] in a line: in vitro release of E2 (reciprocating dissolution apparatus, USP Test Dissolution Method V, 32° C.). As to conditions: Example 1, 7-layer system, over 7 days. On the procedure:
The in vitro release of E2 from the 7-layer system was determined, using a reciprocating dissolution apparatus (USP Test Dissolution Method V) at 32° C., to be square-root-time-dependent over 7 days with a total cumulative release of 190 μg/cm^2 in 7 days (the flux was 14.66 μg/cm^2 /hr^1/2). The laminated composite was translucent and resilient, allowing the system to stretch with the stretching of skin when worn.

For `C[C@]12CC[C@@H]3c4ccc(O)cc4CC[C@H]3[C@@H]1CC[C@@H]2O` [Example E2, estradiol], the “In vitro skin flux” value was -0.15 μg/cm^2 /hr in series [1] (Example 2, 7-layer, 14% PGML in L1); “approximately 0.14 μg/cm^2 /hr” in series [1] (Example 3, 7-layer, Medifilm 810, E2 2.0% in L1 and 5.5% in L2). In addition, the E2 skin flux in series [1] (Example 4, 5-layer laminate (prepared similarly to Example 1)) is -0.12 μg/cm^2 /hr; in series [1] (Example 5, 5-layer laminate (prepared similarly to Example 2)), ~ 0.15 μg/cm^2 /hr. Also, the “flux from the 5-layer device” value was -0.14 μg/cm^2 /hr in series [1] (Examples 6 and 7, 5-layer device, Medifilm 810); -0.11 μg/cm^2 /hr in series [1] (Examples 8 and 9, 5-layer device, Medifilm 910). Moreover, the constant plasma levels in series [2] (Example 3, 30 cm^2 laminate, four day wearing, 5760 min) is about 32 pg/mL. For the same compound, the “constant plasma concentration of E2” value in series [2] (Example 5, 30 cm^2 laminate, 7 day wearing) was about 45 pg/mL. Also, the concentration at 96 h in series [2] (human, plasma, topical or ocular, Example 3, 20 cm^2 laminate, four day wearing, read-out: constant plasma levels) was about 0.025 ng/mL. In addition, the concentration at 168 h in series [2] (human, plasma, topical or ocular, Example 5, 20 cm^2 laminate, 7 day wearing, read-out: constant plasma concentration of E2) was about 0.03 ng/mL. The “in vitro release flux of E2 (square-root-time)” value in series [3] was determined as 14.66 μg/cm^2 /hr^1/2. The “time dependence of in vitro release of E2” value in series [3] was “square-root-time-dependent”.
